Each structure is given as a SMILES string. Where two headings read alike, the source gives them in different places.

The test system of assay [1] is nitric oxide synthases (nNOS, iNOS, eNOS). The note with it: literature, cited from earlier work; for isoform selectivity factor: methyl: eNOS and nNOS over iNOS, ethyl: iNOS over nNOS and eNOS.
Assay [2] concerns the target neuronal nitric oxide synthase (nNOS) from bovine brain (Bos taurus, UniProt A0A3Q1M6M2). The experiment in a line: Hemoglobin capture assay of nitric oxide formation, nNOS.
Protocol: (§1) Nitric oxide formation was measured by using the hemoglobin capture assay. […] The production of nitric oxide by eNOS was measured as described. […] All assays were in a final volume of 600 μL and were initiated with enzyme.
(§2) The reversible inhibition of NOS by the dipeptide analogs was studied under initial rate conditions with the hemoglobin assay as described above. […] With various L-arginine and inhibitor concentrations.
Assay [3] has as its target T1, recombinant bovine endothelial nitric oxide synthase (eNOS) (Bos taurus, UniProt P29473).
T1 construct: made in house; host or cells: E. coli
The experiment in a line: Hemoglobin capture assay of nitric oxide formation, eNOS. The assay is classed as biochemical.
Protocol: as §1, §2

For assay [4], the target named is recombinant murine macrophage nitric oxide synthase (iNOS) (Mus musculus, UniProt P29477). Description: Hemoglobin capture assay of nitric oxide formation, iNOS.
Protocol: as §1, §2
Setting [5] is: N-substituted L-arginines, ratio of the inverse of the Ki values (IC50 for methyl, ethyl).

Sequence of neuronal nitric oxide synthase (nNOS) from bovine brain (A0A3Q1M6M2 entry or part of it): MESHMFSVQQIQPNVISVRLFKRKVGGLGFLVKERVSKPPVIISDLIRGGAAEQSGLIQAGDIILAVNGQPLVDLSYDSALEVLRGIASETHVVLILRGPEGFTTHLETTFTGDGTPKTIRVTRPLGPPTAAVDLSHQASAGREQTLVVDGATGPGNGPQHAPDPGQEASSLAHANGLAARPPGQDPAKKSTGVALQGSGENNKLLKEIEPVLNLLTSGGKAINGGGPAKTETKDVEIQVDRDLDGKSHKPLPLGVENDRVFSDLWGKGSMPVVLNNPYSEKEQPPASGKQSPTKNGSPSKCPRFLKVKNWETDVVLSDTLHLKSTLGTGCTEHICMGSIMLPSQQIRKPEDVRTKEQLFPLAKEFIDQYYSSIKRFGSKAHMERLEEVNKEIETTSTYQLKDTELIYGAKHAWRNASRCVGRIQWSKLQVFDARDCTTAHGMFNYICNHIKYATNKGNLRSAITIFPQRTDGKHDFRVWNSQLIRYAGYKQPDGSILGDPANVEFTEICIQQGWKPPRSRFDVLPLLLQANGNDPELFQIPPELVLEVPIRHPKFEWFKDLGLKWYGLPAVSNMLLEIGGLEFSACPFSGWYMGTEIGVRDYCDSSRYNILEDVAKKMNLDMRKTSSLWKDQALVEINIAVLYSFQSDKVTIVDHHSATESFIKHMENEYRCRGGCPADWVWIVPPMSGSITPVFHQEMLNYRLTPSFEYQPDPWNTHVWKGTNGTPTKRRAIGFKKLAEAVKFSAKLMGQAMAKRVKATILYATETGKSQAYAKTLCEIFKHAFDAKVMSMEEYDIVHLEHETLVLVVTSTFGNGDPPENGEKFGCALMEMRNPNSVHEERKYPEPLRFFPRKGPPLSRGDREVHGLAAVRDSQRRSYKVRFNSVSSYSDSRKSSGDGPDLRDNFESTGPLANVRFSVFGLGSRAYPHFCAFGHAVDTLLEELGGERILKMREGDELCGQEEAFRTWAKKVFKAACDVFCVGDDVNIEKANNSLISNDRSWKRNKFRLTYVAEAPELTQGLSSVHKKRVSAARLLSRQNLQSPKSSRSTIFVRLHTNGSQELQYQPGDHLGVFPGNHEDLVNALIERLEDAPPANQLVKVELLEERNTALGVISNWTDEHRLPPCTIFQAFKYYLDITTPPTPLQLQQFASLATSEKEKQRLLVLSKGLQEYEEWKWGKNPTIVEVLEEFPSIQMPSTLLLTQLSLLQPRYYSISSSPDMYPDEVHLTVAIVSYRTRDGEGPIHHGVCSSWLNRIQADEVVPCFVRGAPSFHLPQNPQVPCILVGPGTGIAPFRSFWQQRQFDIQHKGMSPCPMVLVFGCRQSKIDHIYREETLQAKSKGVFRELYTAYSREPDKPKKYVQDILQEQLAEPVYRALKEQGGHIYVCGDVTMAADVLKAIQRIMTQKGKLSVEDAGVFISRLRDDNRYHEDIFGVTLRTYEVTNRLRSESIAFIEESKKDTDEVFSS

As for `CC1CCN=C(N)S1` (stereo not drawn) [2-Amino-5,6-dihydro-6-methyl-4H-1,3-thiazine], the “selectivity in favor of iNOS” value in assay [1] is 10-40 fold.

In the case of `N=C(N)NN` [Aminoguanidine], in assay [1], the “selectivity for iNOS over eNOS” value is 500 fold and the “selectivity for iNOS over nNOS” value is listed as 50 fold.

Take `CC(=N)NCCCC[C@H](N)C(=O)O` [L-N^6-(1-Iminoethyl)lysine]: in assay [1], the “selectivity for iNOS over eNOS” value was 30 fold and the “selectivity for iNOS over nNOS” value is 13 fold.

Broadly, the kinact is the maximal first-order rate at which the target is inactivated. For the compound `NC(=NCCC[C@H](N)C(=O)O)N[N+](=O)[O-]` [N-nitro-L-arginine, N^ω --Nitro-L-arginine, reference compound], the “selectivity for nNOS over iNOS” value in assay [1] is “about 300 fold”. In assay [2] (read-out: KI (time-dependent inhibition), with nNOS), the Ki is 9.3 µM. The kinact in assay [2] (with nNOS) came to 0.132 min⁻¹.

As to `CSC(N)=NCCC[C@H](N)C(=O)O` [S-Methyl-L-thiocitrulline], in assay [1], the “selectivity for nNOS than eNOS” value is recorded as 10 fold.

Take `CCSC(N)=NCCC[C@H](N)C(=O)O` [S-ethyl-L-thiocitrulline]: the “selectivity for nNOS than eNOS” value in assay [1] is 50 fold.

`CCSC(=N)N` [S-ethylisothiourea]: the “selectivity in favor of iNOS” value in assay [1] was 10-40 fold.

As usually defined, the IC50 is the midpoint of a concentration-inhibition curve. For the compound `CCNC(=N)NCCC[C@H](N)C(=O)O` [ethyl, N^ω -ethyl-L-arginine, reference compound], the figures for the isoform selectivity factor in assay [1] (listed as N^ω --ethyl-L-arginine) and in assay [1] (listed as N^ω -ethyl-L-arginine) were roughly 2 and “about 2”, respectively. The IC50 came to 9.5 µM in assay [3], 6.1 µM in assay [4] and 16 µM in assay [2]. The “Selectivity nNOS/eNOS” value in assay [2] (setting [5]) worked out at 0.6. For the same compound, the “Selectivity nNOS/iNOS” value in assay [2] (setting [5]) turned out to be 0.4.

Consider `CCCNC(=N)NCCC[C@H](N)C(=O)O` [propyl, N^ω -Propyl-L-arginine], for which, in assay [3] (Cornish-Bowden replots), the “type of reversible inhibition of eNOS” value is “competitive inhibitor”. Also, the Ki in assay [3] (Table 1) worked out at 8.5 µM; in assay [4], 180 µM; in assay [2] it was 0.057 µM. In addition, the “type of reversible inhibition of iNOS” value in assay [4] (Cornish-Bowden replots) is “competitive inhibitor”. Besides, the “type of reversible inhibition of nNOS” value in assay [2] is “competitive inhibitor”.

The record behind these values is patent US6274557A, “Inhibition of nitric oxide synthase by amino acids and dipeptides” (Northwestern University, priority 1999, dated 2001).
